Literature values as cited in patent publication US12127968B2, “Methods and devices for controlled delivery” (Femasys Inc., priority 2018, dated 2024).
Where a name gives a salt, the structure may show the parent alone.

Tested on: ovulation
Conditions: patients whose only factor is ovulatory dysfunction

CCN(CC)CCOc1ccc(C(=C(Cl)c2ccccc2)c2ccccc2)cc1 [Clomiphene citrate]
patients in whom normal ovulation is restored: about 80%
